Reference: patent US9855268B2, “Triazolo[4,5-d]pyrimidine derivatives” (Merck Patent GmbH, priority 2013, dated 2018)

What was measured:
[1] = target: GSK3β(h) (Homo sapiens, UniProt P49841); assay: GSK3β radiometric kinase assay (33P-ATP, phospho GS2 peptide); assay type: biochemical; settings: read-out: IC50 GSK3β (enzyme assay)
In short: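 Human GSK3β in 8 mM MOPS pH 7,0, 0,2 mM EDTA, 10 mM Mg-acetate with 20 μM phospho-GS2 peptide; the reaction was started with [γ-33P]MgATP at an unstated level. After 40 min at room temperature it was stopped with phosphoric acid, and the peptide was captured on P30 filtermat for scintillation counting.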

[2] = target: GSK3α(h) (Homo sapiens, UniProt P49840); assay: GSK3α radiometric kinase assay (33P-ATP, phospho GS2 peptide); assay type: biochemical; settings: read-out: IC50 GSK3α (enzyme assay)
In short: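 Human GSK3α incubated with 20 μM phospho-GS2 peptide in 8 mM MOPS pH 7,0, 10 mM Mg-acetate and [γ-33P]ATP (concentration as required), started with MgATP. After 40 minutes at room temperature, stopped with phosphoric acid; 33P incorporation measured by filtermat spotting and scintillation counting.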

[3] = target: T1, GCN2 (Homo sapiens, UniProt Q9P2K8); assay: Cellular assay of GCN2 activity (phospho-eIF2alpha immunocytochemistry after tryptophanol); assay type: cell-based; design: endogenous in cells; host or cells: U2OS; settings: Human U2OS cells, 2 h compound, 600 μM tryptophanol 30 min
In short: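 Readout in human U2OS cells: compound pretreatment 2 h, then tryptophanol (600 μM final) for 30 min to trigger GCN2 signalling. Fixed, permeabilised cells quantified by immunocytochemistry for phosphorylation, normalised to DMSO controls as % effect; IC50 from concentration-response.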
Target sequence in this assay (Q9P2K8 whole entry): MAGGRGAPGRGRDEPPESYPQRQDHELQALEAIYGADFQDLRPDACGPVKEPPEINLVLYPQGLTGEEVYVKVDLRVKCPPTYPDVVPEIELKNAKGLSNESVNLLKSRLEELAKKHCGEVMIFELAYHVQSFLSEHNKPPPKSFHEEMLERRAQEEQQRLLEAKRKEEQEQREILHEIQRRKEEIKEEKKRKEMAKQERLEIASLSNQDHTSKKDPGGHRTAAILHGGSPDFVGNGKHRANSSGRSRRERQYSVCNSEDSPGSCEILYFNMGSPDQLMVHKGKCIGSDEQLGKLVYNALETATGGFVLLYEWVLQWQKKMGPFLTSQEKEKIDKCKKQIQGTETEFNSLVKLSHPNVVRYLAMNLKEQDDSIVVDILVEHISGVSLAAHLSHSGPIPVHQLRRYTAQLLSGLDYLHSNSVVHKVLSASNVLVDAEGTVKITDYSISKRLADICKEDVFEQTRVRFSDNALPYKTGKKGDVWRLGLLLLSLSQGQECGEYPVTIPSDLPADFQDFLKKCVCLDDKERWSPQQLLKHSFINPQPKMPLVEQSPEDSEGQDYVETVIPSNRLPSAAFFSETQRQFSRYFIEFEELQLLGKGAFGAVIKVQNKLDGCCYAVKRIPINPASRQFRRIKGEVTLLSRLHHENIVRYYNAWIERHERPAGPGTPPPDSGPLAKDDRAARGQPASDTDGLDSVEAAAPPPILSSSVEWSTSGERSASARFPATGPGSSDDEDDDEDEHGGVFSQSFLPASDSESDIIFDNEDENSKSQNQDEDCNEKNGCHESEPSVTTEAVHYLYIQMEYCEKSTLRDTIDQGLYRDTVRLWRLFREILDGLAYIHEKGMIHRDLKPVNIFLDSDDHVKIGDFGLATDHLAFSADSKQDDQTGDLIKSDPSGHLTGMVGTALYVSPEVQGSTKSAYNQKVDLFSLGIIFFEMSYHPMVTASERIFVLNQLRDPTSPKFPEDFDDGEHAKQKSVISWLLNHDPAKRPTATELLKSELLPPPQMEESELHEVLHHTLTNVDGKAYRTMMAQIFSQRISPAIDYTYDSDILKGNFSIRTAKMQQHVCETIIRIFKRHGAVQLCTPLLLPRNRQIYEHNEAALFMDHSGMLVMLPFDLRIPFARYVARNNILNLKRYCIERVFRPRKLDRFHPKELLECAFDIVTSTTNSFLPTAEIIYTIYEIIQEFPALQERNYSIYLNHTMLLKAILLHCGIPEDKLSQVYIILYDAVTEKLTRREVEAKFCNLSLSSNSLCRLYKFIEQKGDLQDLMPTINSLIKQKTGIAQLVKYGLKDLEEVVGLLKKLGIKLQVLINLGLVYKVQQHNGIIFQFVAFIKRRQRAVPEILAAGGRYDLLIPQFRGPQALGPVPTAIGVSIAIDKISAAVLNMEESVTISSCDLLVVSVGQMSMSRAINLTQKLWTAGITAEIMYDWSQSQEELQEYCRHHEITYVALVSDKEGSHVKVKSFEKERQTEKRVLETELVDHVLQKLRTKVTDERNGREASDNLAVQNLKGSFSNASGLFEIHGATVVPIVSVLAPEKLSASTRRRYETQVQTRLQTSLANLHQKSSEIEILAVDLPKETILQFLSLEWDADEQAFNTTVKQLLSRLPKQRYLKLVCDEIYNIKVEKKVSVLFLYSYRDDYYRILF

[4] = target: T1, GCN2; assay: GCN2 enzyme assay (TR-FRET Lanthascreen, GFP-eIF2alpha phosphorylation); assay type: biochemical; settings: 10 μM ATP, 80 nM GFP-eIF2a, 30 nM GCN2
In short: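 Kinase reaction with 10 μM ATP and 80 nM GFP-labelled eIF2alpha substrate at room temperature, stopped with EDTA. Phospho-eIF2alpha detected by TR-FRET between antibody and GFP-substrate, excitation at 340 nm.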
Target sequence in this assay (Q9P2K8 whole entry, species assumed): as the sequence (Q9P2K8 whole entry) above

Chain of GSK3α(h) (P49840 whole entry): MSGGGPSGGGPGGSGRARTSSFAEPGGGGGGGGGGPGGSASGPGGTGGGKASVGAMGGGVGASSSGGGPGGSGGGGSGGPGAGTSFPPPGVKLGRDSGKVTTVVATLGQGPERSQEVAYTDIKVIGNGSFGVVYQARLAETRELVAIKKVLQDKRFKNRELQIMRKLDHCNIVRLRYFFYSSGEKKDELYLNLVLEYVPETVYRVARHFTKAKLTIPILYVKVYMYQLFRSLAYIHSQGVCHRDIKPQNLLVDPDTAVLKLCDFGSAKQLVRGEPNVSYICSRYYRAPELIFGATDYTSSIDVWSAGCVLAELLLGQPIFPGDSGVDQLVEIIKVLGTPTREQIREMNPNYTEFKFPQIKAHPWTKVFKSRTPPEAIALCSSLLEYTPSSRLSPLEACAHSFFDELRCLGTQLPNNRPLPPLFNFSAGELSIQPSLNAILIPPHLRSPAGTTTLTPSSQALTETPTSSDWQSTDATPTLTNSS
Chain of GSK3β(h) (P49841 whole entry): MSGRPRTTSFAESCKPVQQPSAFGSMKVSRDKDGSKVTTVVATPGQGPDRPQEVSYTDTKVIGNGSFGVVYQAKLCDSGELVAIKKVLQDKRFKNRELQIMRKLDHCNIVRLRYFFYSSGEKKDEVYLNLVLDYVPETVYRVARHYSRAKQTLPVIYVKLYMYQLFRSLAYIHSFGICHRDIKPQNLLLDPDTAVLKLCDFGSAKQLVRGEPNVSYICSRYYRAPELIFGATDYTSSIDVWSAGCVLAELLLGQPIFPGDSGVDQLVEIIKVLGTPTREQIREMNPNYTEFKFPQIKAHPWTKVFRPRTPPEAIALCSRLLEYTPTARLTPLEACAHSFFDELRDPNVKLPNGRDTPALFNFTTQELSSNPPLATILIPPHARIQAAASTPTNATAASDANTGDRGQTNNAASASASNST

SMILES | IC50 [1] [µM] | IC50 [2] [µM] | IC50 [3] [µM] | IC50 [4] [µM]
COCCNC(=O)[C@@H]1CC[C@@H](Nc2ncc3nnn(-c4ccc5nc(C)ccc5c4)c3n2)C1 [A246, (1R,3R)-3-[3-(2-methyl-quinolin-6-yl)-3H-[1,2,3]triazolo[4,5-d]pyrimidin-5-ylamino]-cyclopentanecarboxylic acid (2-methoxy-ethyl)-amide] | < 1 | < 1 | 1 to 5 | < 1
OCCOc1ccc(-n2nnc3cnc(N[C@@H]4CC[C@@H](O)C4)nc32)cc1 [A203, (1R,3R)-3-{3-[4-(2-hydroxy-ethoxy)-phenyl]-3H-[1,2,3]triazolo[4,5-d]pyrimidin-5-ylamino}-cyclopentanol] | < 1 | < 1 | 1 to 5 | < 1
COc1ccc(-n2nnc3cnc(N[C@@H]4CC[C@@H](C(=O)NCCN5CCN(C)CC5)C4)nc32)cc1 [A244, (1R,3R)-3-[3-(4-methoxy-phenyl)-3H-[1,2,3]triazolo[4,5-d]pyrimidin-5-ylamino]-cyclopentanecarboxylic acid [2-(4-methyl-piperazin-1-yl)-ethyl]-amide] | < 1 | < 1 | < 1 | < 1
Cc1ccc2cc(-n3nnc4cnc(N[C@@H]5CC[C@@H](C(=O)NCCN6CCN(C)CC6)C5)nc43)ccc2n1 [A250, (1R,3R)-3-[3-(2-methyl-quinolin-6-yl)-3H-[1,2,3]triazolo[4,5-d]pyrimidin-5-ylamino]-cyclopentanecarboxylic acid [2-(4-methyl-piperazin-1-yl)-ethyl]-amide] | < 1 | < 1 | 1 to 5 | < 1
COc1ccc(-n2nnc3cnc(N[C@@H]4CC[C@H](CN)C4)nc32)cc1 [A122, ((1R,3S)-3-aminomethyl-cyclopentyl)-[3-(4-methoxy-phenyl)-3H-[1,2,3]triazolo[4,5-d]pyrimidin-5-yl]-amine] | 1 to 5 | < 1 | 1 to 5 | < 1
Cn1cc(-c2ccc(-n3nnc4cnc(N[C@@H]5CC[C@H](N)C5)nc43)cc2)cn1 [A118, (1S,3R)-N3-{3-[4-(1-methyl-1H-pyrazol-4-yl)-phenyl]-3H-[1,2,3]triazolo[4,5-d]pyrimidin-5-yl}-cyclopentane-1,3-diamine] | < 1 | < 1 | 1 to 5 | < 1
CCOc1ccc(-n2nnc3cnc(N[C@@H]4CC[C@@H](C(=O)NCC5CCN(C)CC5)C4)nc32)cc1 [A249, (1R,3R)-3-[3-(4-ethoxy-phenyl)-3H-[1,2,3]triazolo[4,5-d]pyrimidin-5-ylamino]-cycloentanecarboxyic acid (1-methyl-piperidin-4-ylmethyl)-amide] | < 1 | < 1 | 1 to 5 | < 1
CC(C)(CCO)Oc1ccc(-n2nnc3cnc(N[C@@H]4CC[C@@H](C(N)=O)C4)nc32)cc1 [A278, (1R,3R)-3-{3-[4-(3-hydroxy-1,1-dimethyl-propoxy)-phenyl]-3H-[1,2,3]triazolo[4,5-d]pyrimidin-5-ylamino}-cyclopentanecarboxylic acid amide] | < 1 | < 1 | 1 to 5 | < 1
CCOc1ccc(-n2nnc3cnc(N[C@@H]4CC[C@@H](C(=O)NNC(C)=O)C4)nc32)cc1 [A280, (1R,3R)-3-[3-(4-ethoxy-phenyl)-3H-[1,2,3]triazolo[4,5-d]pyrimidin-5-ylamino]-cyclopentanecarboxylic acid N′-acetyl-hydrazide] | < 1 | < 1 | 1 to 5 | < 1

Second part, the compound after the results:

IC50 [1] [µM] | IC50 [2] [µM] | IC50 [3] [µM] | IC50 [4] [µM] | SMILES
< 1 | < 1 | 1 to 5 | < 1 | COc1ccc(-n2nnc3cnc(N[C@@H]4CC[C@@H](C(N)=O)C4)nc32)cc1F [A152, (1R,3R)-3-[3-(3-fluoro-4-methoxy-phenyl)-3H-[1,2,3]triazolo[4,5-d]pyrimidin-5-ylamino]-cyclopentanecarboxylic acid amide]
< 1 | < 1 | 5 to 10 | < 1 | NC(=O)[C@@H]1CC[C@@H](Nc2ncc3nnn(-c4ccc(OCCO)cc4)c3n2)C1 [A153, (1R,3R)-3-{3-[4-(2-hydroxy-ethoxy)-phenyl]-3H-[1,2,3]triazolo[4,5-d]pyrimidin-5-ylamino}-cyclopentanecarboxylic acid amide]
< 1 | < 1 | 1 to 5 | < 1 | Cc1nc2ccc(-n3nnc4cnc(N[C@@H]5CC[C@@H](C(N)=O)C5)nc43)cc2s1 [A147, (1R,3R)-3-[3-(2-methyl-benzothiazol-6-yl)-3H-[1,2,3]triazolo[4,5-d]pyrimidin-5-ylamino]-cyclopentanecarboxylic acid amide]
< 1 | < 1 | 5 to 10 | < 1 | CC(C)Oc1ccc(-n2nnc3cnc(N[C@@H]4CC[C@@H](C(N)=O)C4)nc32)cc1 [A164, (1R,3R)-3-[3-(4-isopropoxy-phenyl)-3H-[1,2,3]triazolo[4,5-d]pyrimidin-5-ylamino]-cyclopentanecarboxylic acid amide]
< 1 | < 1 | 5 to 10 | < 1 | COc1ccc(-n2nnc3cnc(N[C@@H]4CC[C@@H](C(N)=O)C4)nc32)cc1C [A162, (1R,3R)-3-[3-(4-methoxy-3-methyl-phenyl)-3H-[1,2,3]triazolo[4,5-d]pyrimidin-5-ylamino]-cyclopentanecarboxylic acid amide]
< 1 | < 1 | 1 to 5 | < 1 | CCOCCn1cc(-c2ccc(-n3nnc4cnc(N[C@@H]5CC[C@@H](C(=O)NCCO)C5)nc43)cc2)cn1 [A226, (1R,3R)-3-(3-{4-[1-(2-ethoxy-ethyl)-1H-pyrazol-4-yl]-phenyl}-3H-[1,2,3]triazolo[4,5-d]pyrimidin-5-ylamino)-cyclopentanecarboxylic acid (2-hydroxy-ethyl)-amide]
< 1 | < 1 | < 1 | < 1 | Cc1ccc2cc(-n3nnc4cnc(N[C@@H]5CC[C@@H](C(N)=O)C5)nc43)ccc2n1 [A187, (1R,3R)-3-[3-(2-methyl-quinolin-6-yl)-3H-[1,2,3]triazolo[4,5-d]-pyrimidin-5-ylamino]-cyclopentanecarboxylic acid amide]
< 1 | < 1 | 5 to 10 | < 1 | CCOCCn1cc(-c2ccc(-n3nnc4cnc(N[C@@H]5CC[C@@H](C(N)=O)C5)nc43)cc2)cn1 [A211, (1R,3R)-3-(3-{4-[1-(2-ethoxy-ethyl)-1H-pyrazol-4-yl]-phenyl}-3H-[1,2,3]triazolo[4,5-d]pyrimidin-5-ylamino)-cyclopentanecarboxylic acid amide]
< 1 | < 1 | 5 to 10 | < 1 | NC(=O)[C@@H]1CC[C@@H](Nc2ncc3nnn(-c4ccc(N5CCOCC5)c(F)c4)c3n2)C1 [A158, (1R,3R)-3-[3-(3-fluoro-4-morpholin-4-yl-phenyl)-3H-[1,2,3]triazolo[4,5-d]-pyrimidin-5-ylamino]-cyclopentanecarboxylic acid amide]
< 1 | < 1 | < 1 | < 1 | CCOCCn1cc(-c2ccc(-n3nnc4cnc(N[C@@H]5CC[C@@H](C(N)=O)C5)nc43)cc2F)cn1 [A223, (1R,3R)-3-(3-{4-[1-(2-ethoxy-ethyl)-1H-pyrazol-4-yl]-3-fluoro-phenyl}-3H-[1,2,3]triazolo[4,5-d]pyrimidin-5-ylamino)-cyclopentanecarboxylic acid amide]
< 1 | < 1 | 1 to 5 | < 1 | CCOCCn1cc(-c2ccc(-n3nnc4cnc(N[C@@H]5CC[C@@H](O)C5)nc43)cc2)cn1 [A227, (1R,3R)-3-(3-{4-[1-(2-ethoxy-ethyl)-1H-pyrazol-4-yl]-phenyl}-3H-[1,2,3]triazolo[4,5-d]pyrimidin-5-ylamino)-cyclopentanol]
1 to 5 | < 1 | < 1 | < 1 | CCOCCn1cc(-c2ccc(-n3nnc4cnc(N[C@@H]5CC[C@@H](N)C5)nc43)cc2)cn1 [A125, (1R,3R)—N-(3-{4-[1-(2-3thoxy-ethyl)-1H-pyrazol-4-yl]-phenyl}-3H-[1,2,3]triazolo[4,5-d]pyrimidin-5-yl)-cyclopentane-1,3-diamine]
< 1 | < 1 | 1 to 5 | < 1 | COCCOc1ccc(-n2nnc3cnc(N[C@@H]4CC[C@@H](C(N)=O)C4)nc32)cc1 [A135, (1R,3R)-3-{3-[4-(2-methoxy-ethoxy)-phenyl]-3H-[1,2,3]triazolo[4,5-d]pyrimidin-5-ylamino}-cyclopentanecarboxylic acid amide]
